Measured values taken from patent US20110124574A1, “RESTORATION OF ESTROGEN RECEPTOR-(ALPHA) ACTIVITY” (priority 2008, published 2011).
Where no end group is shown, it is not given here. The star is where a group is joined. For = O=C*

How the values were obtained:
Assay type in all cases: cell-based, human
[1] = tested on: Phospho-ERα (Ser 118); assay: Phospho-ERα (Ser 118) Western blot in MDA-MB-231 cells; conditions: stimulated lysates
Procedure: MDA-MB-231 cells were grown in 6 well plates and stimulated with recombinant Wnt-5a protein (rW5a) or the Wnt-5a derived Foxy-5 peptide (F5), for 24 or 48 h. A: Following treatment, cells were lysed and subjected to SDS-PAGE, transferred to nitrocellulose membranes and blotted for phospho-ERα expression. The positive control (Pos) represents cell lysates from T47D cells expressing ERα B and C: RNA was also extracted from stimulated cells and samples tested for progesterone receptor (PR) (B) and pS2 (C) mRNA using semi-nested RT-PCR. The positive control (Pos) is RNA extracted from T47D cells that express ERα. The negative control represents a water control. PCR results are representative of three separate experiments.
Cells were lysed in Triton lysis buffer (50 mM Tris (pH7.5), 1% Triton x-100, 140 mM NaCl, 0.5 mM EDTA, 0.5 MgCl2, 10 mM NaF) with the addition of fresh leupeptin (1 μg/ml), Pefabloc (2 mM), aprotinin (20 μg/ml) and Na3VO4 (4 mM). Lysates were incubated on ice for 15 minutes, then pre-cleared by centrifugation for 10 minutes at 8000 g. Cell lysates were separated according to size on 8-12% SDS-polyacrylamide gels and subsequently electrically transferred to PVDF or nitrocellulose membranes. […] Scanning and densitometry was performed using a Bio-Rad (Hercules Calif.) GS-800 densitometer with Quantity One software. […]

[2] = tested on: ERα; assay: RT-PCR of estrogen responsive genes CATD and EBAG9 after estradiol and tamoxifen; conditions: MDA-MB-231, hormone free media, pretreatment, estradiol plus tamoxifen, at 48 hours
Procedure: MDA-MB-231 cells were grown in 6 well plates and stimulated with recombinant Wnt-5a (rW5a) or the Wnt-5a derived Foxy-5 peptide (F5), for 24 h or 48 h. The ERα ligand estradiol was added for the final 22 h, and tamoxifen for the final 20 h to a subset of samples. RNA was extracted at the end time point, cDNA synthesized and subjected to RT-PCR for Cathepsin D (CATD), ER-binding fragment associated antigen 9 (EBAG9) and the housekeeping gene, β-actin.
cDNA was synthesized from 1 μg of total RNA using M-MuLV reverse transcriptase (Fermentas) in a MJ Mini Personal Thermal Cycler (Bio-Rad (Hercules Calif.)). All RT-PCR was performed in a designated clean PCR hood. RT-PCR was performed using a master mix containing with 5 μl of 10× buffer, 5 μl of 25 mM MgCl2, 1 μl 10 mM dNTP, 1 μl forward primer, 1 μl reverse primer and 0.2 μl of Taq polymerase (Fermentas (Ontario, Canada)) per sample. For detection of the progesterone receptor (PR), semi nested RT-PCR was performed to increase sensitivity, whereby 10 μl of the initial PCR reaction product was added to a second PCR reaction with a second internal reverse primer. Both A and β isoforms are amplified with these primers.

[3] = tested on: ERα; assay: ERα mRNA by RT-PCR in stimulated MDA-MB-231 cells; conditions: time points 6, 12, 18 and 24 hours
Procedure: Breast cancer cells were grown in 6 well plates and stimulated with recombinant Wnt-5a protein (rW5a) or the Wnt-5a derived Foxy-5 peptide (F5), for 6, 12, 18 or 24 h. RNA was extracted at the end time point, cDNA synthesized and subjected to RT-PCR for ERα and the housekeeping gene, β-actin. A: MDA-MB-231 breast cancer cells, B: MDA-MB-468 breast cancer cells. The positive control (Pos) is RNA extracted from T47D cells which express ERα. The negative control represents a water control.
Stimulation of cells was performed with recombinant Wnt-5a (0.6 μg/ml) and recombinant Wnt-3a (0.1 μg/ml and in a control experiment, 0.6 μg/ml) (R&D Systems Abington, UK) for times as indicated. The Wnt-5a derived formylated hexapeptide, Foxy-5 (formyl-MDGCEL) (SEQ. ID. NO. 1) designed in the laboratory of the inventors, and a formylated random hexapeptide (formyl-MSADVG) (SEQ: ID: NO: 16) were either synthesized by Pepscan Presto (Lelystad, The Netherlands) or Inbiolabs (Tallinn, Estonia). The peptides were purified by RP-HPLC and mass spectrometry, and the >95% pure peptides were synthesized three times. […]
RNA extraction was performed in a designated clean RNA area with the addition of 500 μl TRIzol to each sample. […] The RNA concentration was measured using a Nanodrop Spectrophotometer ND-1000 (Bio-Rad (Hercules Calif.)). […]

| Molecule | Phosphorylated ERα (serine 118) [1] | Estradiol induced expression of CATD [2] | Estradiol induced expression of EBAG9 [2] | stimulation time after which ERα mRNA was detected [3] [h] |
| --- | --- | --- | --- | --- |
| formyl-MDGCEL (For-MDGCEL; listed as Homo sapiens) [Foxy-5] | detected | consistently lost | consistently lost | 6 |
| recombinant Wnt-5a: recombinant Wnt-5a protein (R&D Systems) (protein, UniProt P41221 62-380, looked up) Protein Wnt-5a: IIGAQPLCSQLAGLSQGQKKLCHLYQDHMQYIGEGAKTGIKECQYQFRHRRWNCSTVDNTSVFGRVMQIGSRETAFTYAVSAAGVVNAMSRACREGELSTCGCSRAARPKDLPRDWLWGGCGDNIDYGYRFAKEFVDARERERIHAKGSYESARILMNLHNNEAGRRTVYNLADVACKCHGVSGSCSLKTCWLQLADFRKVGDALKEKYDSAAAMRLNSRGKLVQVNSRFNSPTTQDLVYIDPSPDYCVRNESTGSLGTQGRLCNKTSEGMDGCELMCCGRGYDQFKTVQTERCHCKFHWCCYVKCKKCTEIVDQFVCK | detected | consistently lost | consistently lost | 12 |
